Values of other authors, collected in patent publication US20060210485A1, “Pharmaceutical formulations” (priority 2003, published 2006).
Counter-ions that a name gives are not always drawn.

Conditions: solid tablets with a lactose excipient; adducts postulated via the Maillard reaction

**Q.** Which “chemical stability in presence of lactose” value does the source give for `CNCCC(Oc1ccc(C(F)(F)F)cc1)c1ccccc1` (stereo not shown) [fluoxetine hydrochloride] here?
**A.** undergoes degradation
